We go through 4 compounds from ChEMBL document CHEMBL1131804, “Synthesis of delta4-beta-D-glucopyranosiduronic acids as mimetics of 2,3-unsaturated sialic acids for sialidase inhibition” (Bioorg Med Chem Lett, 1999).

The subject of one test is Crassostrea virginica. The test is described as follows: Inhibitory activity against KDN-sialidase from Crassostrea virginica at a concentration of 1 mM.
Test [1] can be described thus: Inhibitory activity against influenza virus A(N9) sialidase.
Test [2] is described as follows: Inhibitory activity against Vibrio cholerae sialidase.
A further test relates to Clostridium perfringens. The test is described as follows: Inhibitory activity against sialidase from Clostridium perfringens at a concentration of 0.1 mM.
In a further test the test system is influenza virus a. The test is described as follows: Inhibitory activity against influenza virus A(N9) sialidase at a concentration of 0.1 mM.
Another test relates to Vibrio cholerae. The test is described as follows: Inhibitory activity against Vibrio cholerae sialidase at a concentration of 0.1 mM.
The subject of test [3] is Salmonella enterica subsp. enterica serovar Typhimurium. The test is described as follows: Inhibitory activity sialidase from Salmonella Typhimurium at a concentration of 0.1 mM.

Each structure is given as a SMILES string.

One may read the inhibition as the drop in the measured response relative to a control, in per cent. Low readings indicate little suppression, high ones strong suppression. As a reminder, the Ki is a dissociation constant, usually derived from enzyme kinetics or from competition with a known ligand. A higher Ki goes with lower affinity.

In turn, `CC(=O)N[C@H]1[C@H]([C@H](O)[C@H](O)CO)OC(C(=O)O)=C[C@@H]1O` [NEU5AC2EN] gave an inhibition with Crassostrea virginica of 20%. Moreover, the Ki in test [1] was found to be 1.3 µM; in test [2], 3.4 µM.

In the case of `CC(=O)NC1C(O)C=C(C(=O)O)OC1OC(C)C` (stereo unspecified), the inhibition in the test with Clostridium perfringens came to 24%; in the test with influenza virus a it was 100%; with Vibrio cholerae, 25%; in test [3], 24%. Besides, the Ki stood at 2.7 µM in test [1] and 120 µM in test [2].

In the case of `CC(C)OC1OC(C(=O)O)=CC(O)C1O` (stereo unspecified), the inhibition with Crassostrea virginica stood at 6%.

Take `O=C(O)C1=CC(O)C(O)C([C@H](O)[C@H](O)CO)O1` (stereo partly specified): the inhibition in the test on Crassostrea virginica was determined as 95%.
